Reference: ChEMBL document CHEMBL3046330, “Synthesis and biological activity of hydrazidehydrazones and their corresponding 3-acetyl-2,5-disubstituted-2,3-dihydro-1,3,4-oxadiazoles” (Med Chem Res, 2012)
≈ marks a conversion by molar mass, not a printed value. Calls of active or inactive are those of the source. No cut-off for these calls is given here.

What was measured:
[1] = test system: Candida albicans; assay: Antifungal activity against Candida albicans ATCC 90028 after 24 hr by NCCLS broth microdilution method; assay type: functional; conditions: ATCC 90028, 24 h
[2] = test system: Cyberlindnera jadinii; assay: Antifungal activity against Cyberlindnera jadinii NRRL Y-900 after 24 hr by NCCLS broth microdilution method; assay type: functional; conditions: Williopsis jadinii, NRRL Y-900, 24 h
[3] = test system: Candida albicans; assay: Antifungal activity against Candida albicans clinical isolate after 24 hr by NCCLS broth microdilution method; assay type: functional
[4] = test system: Candida tropicalis; assay: Antifungal activity against Candida tropicalis NRRL Y-12968 after 24 hr by NCCLS broth microdilution method; assay type: functional; conditions: NRRL Y-12968, 24 h
[5] = test system: RAW264.7; assay: Cytotoxicity against Mus musculus (mouse) RAW264.7 cells up to 25 ug/ml; assay type: cell-based
[6] = test system: Candida albicans; assay: Antifungal activity against Candida albicans clinical isolate at 2000 ug/ml by agar diffusion method; assay type: functional; conditions: read-out: IZ
[7] = test system: Vero; assay: Cytotoxicity against Chlorocebus aethiops (African green monkey) Vero cells assessed as cell viability up to 25 ug/ml after 48 hr by neutral red assay; assay type: cell-based; conditions: chlorocebus sabaeus
[8] = test system: SK-MEL; assay: Cytotoxicity against Homo sapiens (human) SK-MEL cells assessed as cell viability up to 25 ug/ml after 48 hr by neutral red assay; assay type: functional, cell-based
[9] = test system: BT-549; assay: Cytotoxicity against Homo sapiens (human) BT549 cells assessed as cell viability up to 25 ug/ml after 48 hr by neutral red assay; assay type: functional, cell-based
[10] = test system: Botrytis cinerea; assay: Antifungal activity against Botryotinia fuckeliana at 0.3 to 30 uM after 48 to 72 hr by broth microdilution method; assay type: functional, organism-based
[11] = test system: HL-60; assay: Antioxidant activity in PMA-stimulated Homo sapiens (human) HL60 cells assessed as inhibition of intracellular ROS generation up to 25 ug/ml incubated for 30 min prior to PMA stimulation measured after 30 min by DCFH-DA assay relative to vehicle-treated control; assay type: functional, cell-based
[12] = test system: SW1353; assay: Inhibition of PMA-induced NFkappaB activity in Homo sapiens (human) SW1353 cells up to 25 ug/ml incubated for 30 min followed by PMA induction for 8 hr by luciferase reporter gene assay; assay type: cell-based
[13] = Cytotoxicity against Sus scrofa (pig) LLC-PK11 cells assessed as cell viability up to 25 ug/ml after 48 hr by neutral red assay; assay type: cell-based; conditions: llc-pk11, 48 h
[14] = molecular target: Transcription factor Sp1 (Homo sapiens, UniProt P08047); assay: Inhibition of Sp1 (unknown origin) up to 25 ug/ml by luciferase reporter gene assay
Sequence of Transcription factor Sp1 (P08047 whole entry): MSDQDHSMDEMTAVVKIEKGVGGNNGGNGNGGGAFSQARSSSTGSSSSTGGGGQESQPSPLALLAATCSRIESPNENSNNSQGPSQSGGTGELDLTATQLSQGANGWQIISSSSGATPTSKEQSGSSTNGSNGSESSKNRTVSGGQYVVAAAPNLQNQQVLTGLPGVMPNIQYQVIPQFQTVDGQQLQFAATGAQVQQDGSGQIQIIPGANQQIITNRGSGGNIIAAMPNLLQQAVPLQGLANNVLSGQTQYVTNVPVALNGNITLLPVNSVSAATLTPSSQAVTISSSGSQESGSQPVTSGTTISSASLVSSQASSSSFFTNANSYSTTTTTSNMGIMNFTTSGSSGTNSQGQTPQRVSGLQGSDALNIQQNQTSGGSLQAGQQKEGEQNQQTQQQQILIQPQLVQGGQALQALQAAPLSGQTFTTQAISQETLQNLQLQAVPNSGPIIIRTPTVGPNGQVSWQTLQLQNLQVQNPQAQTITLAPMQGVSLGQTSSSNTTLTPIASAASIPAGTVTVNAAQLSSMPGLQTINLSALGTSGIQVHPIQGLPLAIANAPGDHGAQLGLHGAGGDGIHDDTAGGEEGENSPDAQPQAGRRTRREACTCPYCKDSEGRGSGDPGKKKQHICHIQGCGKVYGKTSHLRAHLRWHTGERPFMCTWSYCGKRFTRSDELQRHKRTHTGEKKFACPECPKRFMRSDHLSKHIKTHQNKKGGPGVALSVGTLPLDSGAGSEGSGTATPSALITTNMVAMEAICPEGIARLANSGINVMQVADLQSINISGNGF

[15] = test system: HL-60; assay: Cytotoxicity against Homo sapiens (human) HL60 cells up to 25 ug/ml; assay type: cell-based
[16] = test system: Pichia kudriavzevii; assay: Antifungal activity against Pichia kudriavzevii NRRL Y-7179 after 24 hr by NCCLS broth microdilution method; assay type: functional; conditions: NRRL Y-7179, 24 h
[17] = test system: SK-OV-3; assay: Cytotoxicity against Homo sapiens (human) SKOV3 cells assessed as cell viability up to 25 ug/ml after 48 hr by neutral red assay; assay type: functional, cell-based
[18] = test system: Candida tropicalis; assay: Antifungal activity against Candida tropicalis NRRL Y-12968 at 2000 ug/ml by agar diffusion method; assay type: functional; conditions: read-out: IZ
[19] = test system: Candida parapsilosis; assay: Antifungal activity against Candida parapsilosis NRRL Y-12696 after 24 hr by NCCLS broth microdilution method; assay type: functional; conditions: Lodderomyces parapsilosis, NRRL Y-12696, 24 h
[20] = test system: Colletotrichum fragariae; assay: Antifungal activity against Colletotrichum fragariae at 0.3 to 30 uM after 48 to 72 hr by broth microdilution method; assay type: functional, organism-based
[21] = test system: Candida albicans; assay: Antifungal activity against Candida albicans NRRL Y-12983 after 24 hr by NCCLS broth microdilution method; assay type: functional; conditions: NRRL Y-12983, 24 h
[22] = test system: KB; assay: Cytotoxicity against Homo sapiens (human) KB cells assessed as cell viability up to 25 ug/ml after 48 hr by neutral red assay; assay type: functional, cell-based
[23] = molecular target: T1, Nitric oxide synthase, inducible (Mus musculus, UniProt P29477); assay: Inhibition of iNOS in Mus musculus (mouse) RAW264.7 cells assessed as inhibition of LPS-induced nitrite production incubated for 30 min prior to LPS challenge measured after 24 hr by Griess assay; assay type: cell-based
T1 sequence (P29477 whole entry): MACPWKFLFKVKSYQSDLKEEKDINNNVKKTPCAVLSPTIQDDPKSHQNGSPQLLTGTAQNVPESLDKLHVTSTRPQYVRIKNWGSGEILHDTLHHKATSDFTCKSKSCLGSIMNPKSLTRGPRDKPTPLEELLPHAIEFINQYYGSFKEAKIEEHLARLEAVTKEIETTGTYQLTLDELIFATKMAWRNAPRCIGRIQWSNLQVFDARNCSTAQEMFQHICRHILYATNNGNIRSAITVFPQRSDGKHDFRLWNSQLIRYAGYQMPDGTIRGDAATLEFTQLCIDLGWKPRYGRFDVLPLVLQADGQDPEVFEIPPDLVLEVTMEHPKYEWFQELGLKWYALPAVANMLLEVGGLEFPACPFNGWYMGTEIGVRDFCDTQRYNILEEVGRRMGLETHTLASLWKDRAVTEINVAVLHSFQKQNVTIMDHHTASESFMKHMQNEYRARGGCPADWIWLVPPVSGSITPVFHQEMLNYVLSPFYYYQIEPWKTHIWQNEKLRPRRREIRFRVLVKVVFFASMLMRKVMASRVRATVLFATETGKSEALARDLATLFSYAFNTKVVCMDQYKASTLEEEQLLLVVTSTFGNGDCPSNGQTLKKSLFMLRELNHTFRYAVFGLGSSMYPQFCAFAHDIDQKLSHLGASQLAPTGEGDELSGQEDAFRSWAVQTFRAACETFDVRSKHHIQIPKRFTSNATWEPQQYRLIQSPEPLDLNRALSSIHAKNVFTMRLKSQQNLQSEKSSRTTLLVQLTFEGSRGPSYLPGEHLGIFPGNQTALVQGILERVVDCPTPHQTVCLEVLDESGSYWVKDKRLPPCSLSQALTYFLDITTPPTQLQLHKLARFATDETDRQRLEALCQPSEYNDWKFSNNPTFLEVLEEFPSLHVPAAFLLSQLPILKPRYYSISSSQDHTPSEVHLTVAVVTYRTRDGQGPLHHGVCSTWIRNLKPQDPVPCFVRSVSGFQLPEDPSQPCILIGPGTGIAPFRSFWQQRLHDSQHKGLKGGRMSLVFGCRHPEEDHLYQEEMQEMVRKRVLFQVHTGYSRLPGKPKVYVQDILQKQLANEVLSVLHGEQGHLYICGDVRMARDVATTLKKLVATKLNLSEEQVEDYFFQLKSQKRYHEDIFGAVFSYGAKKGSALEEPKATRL

[24] = test system: Nakaseomyces glabratus; assay: Antifungal activity against Candida glabrata clinical isolate after 24 hr by NCCLS broth microdilution method; assay type: functional
[25] = molecular target: T2, Nitric oxide synthase, inducible (Mus musculus) (UniProt P29477); assay: Inhibition of iNOS in Mus musculus (mouse) RAW264.7 cells assessed as inhibition of LPS-induced nitrite production up to 25 ug/ml incubated for 30 min prior to LPS challenge measured after 24 hr by Griess assay relative to vehicle-treated control; assay type: cell-based
T2 sequence (whole entry): T1 sequence (P29477 whole entry)

[26] = test system: HL-60; assay: Cytotoxicity against Homo sapiens (human) HL60 cells; assay type: cell-based

Row | SMILES | MIC [1] [µg/mL] | MIC [2] [µg/mL] | MIC [3] [µg/mL] | MIC [4] [µg/mL] | inhibition (INH) [14] | MIC [16] [µg/mL] | MIC [19] [µg/mL] | MIC [21] [µg/mL] | MIC [24] [µg/mL] | Activity [5] | zone of inhibition at 2000 µg/mL [6] [mm] | Activity [7] | Activity [8] | Activity [9] | inhibition [11] | inhibition [12] | Activity [13] | Activity [17] | zone of inhibition at 2000 µg/mL [18] [mm] | Activity [22] | also measured
1 | CC(=O)N1N=C(c2ccc(F)cc2)OC1c1ccc(N(C)C)cc1 (stereo not given) | 500 (≈ 1530 µM) | 500 (≈ 1530 µM) | 250 (≈ 764 µM) | 500 (≈ 1530 µM) | Not Active | 500 (≈ 1530 µM) | 1000 (≈ 3050 µM) | 500 (≈ 1530 µM) | 500 (≈ 1530 µM) | Non-toxic | 9 | Not Active | inactive | inactive | inactive | inactive | Not Active | inactive | 9 | inactive | Activity [10]: inactive; Activity [15]: Non-toxic; Activity [20]: inactive; IC50 [23]: 61.1 µM
2 | CC(=O)N1CCN(c2ccc(OCC3COC(Cn4ccnc4)(c4ccc(Cl)cc4Cl)O3)cc2)CC1 (stereo not given) [KETOCONAZOLE] | 62 (≈ 117 µM) | 62 (≈ 117 µM) | 16 (≈ 30.1 µM) | 62 (≈ 117 µM) |  | 62 (≈ 117 µM) | 125 (≈ 235 µM) | 125 (≈ 235 µM) | 31 (≈ 58.3 µM) |  |  |  |  |  |  |  |  |  |  |  | 
3 | CC(=O)N1N=C(c2ccc(F)cc2)OC1c1ccccc1 (stereo not given) | 1000 (≈ 3520 µM) | 1000 (≈ 3520 µM) | 500 (≈ 1760 µM) | 1000 (≈ 3520 µM) | Not Active | 1000 (≈ 3520 µM) | 1000 (≈ 3520 µM) | 500 (≈ 1760 µM) | 1000 (≈ 3520 µM) | Non-toxic | 9 | Not Active | inactive | inactive | inactive | inactive | Not Active | inactive | 9 | inactive | IC50 [26]: 31.3 µg/mL (≈ 110 µM); Activity [10]: inactive; Activity [20]: inactive; IC50 [23]: > 87.9 µM

Further lines, with some results ahead:

Row | MIC [1] [µg/mL] | MIC [2] [µg/mL] | MIC [3] [µg/mL] | MIC [4] [µg/mL] | inhibition (INH) [14] | MIC [16] [µg/mL] | MIC [19] [µg/mL] | MIC [21] [µg/mL] | MIC [24] [µg/mL] | SMILES | Activity [5] | zone of inhibition at 2000 µg/mL [6] [mm] | Activity [7] | Activity [8] | Activity [9] | inhibition [11] | inhibition [12] | Activity [13] | Activity [17] | zone of inhibition at 2000 µg/mL [18] [mm] | Activity [22] | also measured
4 | 500 (≈ 1650 µM) | 500 (≈ 1650 µM) | 500 (≈ 1650 µM) | 500 (≈ 1650 µM) | Not Active | 500 (≈ 1650 µM) | 500 (≈ 1650 µM) | 500 (≈ 1650 µM) | 500 (≈ 1650 µM) | CC(=O)N1N=C(c2ccc(F)cc2)OC1c1ccc(F)cc1 (stereo not given) | Non-toxic | 9 | Not Active | inactive | inactive | inactive | inactive | Not Active | inactive | 9 | inactive | inhibition [25]: inactive; Activity [15]: Non-toxic
5 | 500 (≈ 1590 µM) | 250 (≈ 795 µM) | 250 (≈ 795 µM) | 500 (≈ 1590 µM) | Not Active | 500 (≈ 1590 µM) | 500 (≈ 1590 µM) | 500 (≈ 1590 µM) | 250 (≈ 795 µM) | COc1ccc(C2OC(c3ccc(F)cc3)=NN2C(C)=O)cc1 (stereo not given) | Non-toxic | 9 | Not Active | inactive | inactive | inactive | inactive | Not Active | inactive | 9 | inactive | inhibition [25]: inactive; Activity [15]: Non-toxic
